These results are taken from ChEMBL document CHEMBL1122352, “Synthesis and antitumor activity of 2-beta-D-ribofuranosylselenazole-4-carboxamide and related derivatives” (1983).

Common to all, as to assay type: functional
The test system of experiment [1] is Mus musculus. Kind of experiment: Evaluated for median life span in mice inoculated with lewis lung carcinoma at a dose of 6 mg/kg (Experiment-2).
The test system of experiment [2] is Mus musculus. In words: Evaluated for median life span in mice inoculated with lewis lung carcinoma at a dose of 1.5 mg/kg (Experiment-2).
The subject of experiment [3] is Mus musculus. Kind of experiment: Evaluated for median life span in mice inoculated with lewis lung carcinoma at a dose of 24 mg/kg (Experiment-2).
Experiment [4] deals with Mus musculus. Kind of experiment: Evaluated for increase in life span in mice inoculated with lewis lung carcinoma at a dose of 100 mg/kg (Experiment-1).
The subject of experiment [5] is Mus musculus. In words: Evaluated for increase in life span in mice inoculated with lewis lung carcinoma at a dose of 3 mg/kg (Experiment-2).
In experiment [6] the test system is L1210. Kind of experiment: Evaluated for cytotoxicity against L1210 cells. To be noted: Mus musculus, read-out: ID50 (the source's name).
Experiment [7] deals with Mus musculus. In words: Evaluated for increase in life span in mice inoculated with lewis lung carcinoma at a dose of 25 mg/kg (Experiment-1).
Experiment [8] concerns Mus musculus. In words: Evaluated for increase in life span in mice inoculated with lewis lung carcinoma at a dose of 12 mg/kg (Experiment-1).
Experiment [9] relates to Mus musculus. In words: Evaluated for increase in life span in mice inoculated with lewis lung carcinoma at a dose of 6 mg/kg (Experiment-2).
For experiment [10], the system named is Mus musculus. Kind of experiment: Evaluated for median life span in mice inoculated with lewis lung carcinoma at a dose of 50 mg/kg (Experiment-1).
Experiment [11] concerns Mus musculus. Kind of experiment: Evaluated for median life span in mice inoculated with lewis lung carcinoma at a dose of 12 mg/kg (Experiment-1).
The test system of experiment [12] is Mus musculus. In words: Evaluated for median life span in mice inoculated with lewis lung carcinoma at a dose of 200 mg/kg (Experiment-1).
In experiment [13] the test system is Mus musculus. Kind of experiment: Evaluated for increase in life span in mice inoculated with lewis lung carcinoma at a dose of 50 mg/kg (Experiment-1).
In experiment [14] the test system is Mus musculus. Kind of experiment: Evaluated for median life span in mice inoculated with lewis lung carcinoma at a dose of 100 mg/kg (Experiment-1).
For experiment [15], the system named is Mus musculus. Kind of experiment: Evaluated for median life span in mice inoculated with lewis lung carcinoma at a dose of 12 mg/kg (Experiment-2).
The subject of experiment [16] is Mus musculus. In words: Evaluated for increase in life span in mice inoculated with lewis lung carcinoma at a dose of 1.5 mg/kg (Experiment-2).
The test system of experiment [17] is Mus musculus. Kind of experiment: Evaluated for median life span in mice inoculated with lewis lung carcinoma at a dose of 25 mg/kg (Experiment-1).
Experiment [18] relates to Mus musculus. In words: Evaluated for increase in life span in mice inoculated with lewis lung carcinoma at a dose of 24 mg/kg (Experiment-2).
A further experiment concerns P388. In words: Evaluated for cytotoxicity against P-388 cells. The following applies: Mus musculus, read-out: ID50 (the source's name).
Experiment [19] deals with Mus musculus. In words: Evaluated for median life span in mice inoculated with lewis lung carcinoma at a dose of 3 mg/kg (Experiment-2).
The test system of experiment [20] is Mus musculus. Kind of experiment: Evaluated for increase in life span in mice inoculated with lewis lung carcinoma at a dose of 12 mg/kg (Experiment-2).
Experiment [21] deals with Mus musculus. In words: Evaluated for median life span in mice inoculated with lewis lung carcinoma at a dose of 75 mg/kg.
For experiment [22], the system named is Mus musculus. Kind of experiment: Evaluated for increase in life span in mice inoculated with lewis lung carcinoma at a dose of 13 mg/kg.
The test system of experiment [23] is Mus musculus. Kind of experiment: Evaluated for median life span in mice inoculated with lewis lung carcinoma at a dose of 13 mg/kg.
Experiment [24] concerns Mus musculus. Kind of experiment: Evaluated for median life span in mice inoculated with lewis lung carcinoma at a dose of 50 mg/kg.
For experiment [25], the system named is L1210. In words: Evaluated for cytotoxicity to L1210 cells. The following applies: Mus musculus, read-out: ID50 (the source's name).
Experiment [26] concerns Mus musculus. Kind of experiment: Evaluated for median life span in mice inoculated with lewis lung carcinoma at a dose of 9 mg/kg.
The test system of experiment [27] is Mus musculus. Kind of experiment: Evaluated for median life span in mice inoculated with lewis lung carcinoma at a dose of 33 mg/kg.
Experiment [28] concerns Mus musculus. In words: Evaluated for median life span in mice inoculated with lewis lung carcinoma at a dose of 20 mg/kg.

With `NC(=O)c1c[se]c([C@@H]2O[C@H](CO)[C@@H](O)[C@H]2O)n1`, the MLS came out at 60 days with Mus musculus [1]; 22 days in the experiment with Mus musculus [2]; 60 days in the experiment with Mus musculus [3]; 60 days in the experiment on Mus musculus [10]; 60 days in the experiment with Mus musculus [11]; 10.7 days with Mus musculus [12]. Besides, the MLS was found to be 20.3 days with Mus musculus [14], 60 days in the experiment on Mus musculus [15], 60 days in the experiment on Mus musculus [17] and 31 days in the experiment on Mus musculus [19]. The ILS at 100 mg/kg with Mus musculus [4] was 20%. In the experiment on Mus musculus [5], this compound yielded an ILS at 3 mg/kg of 53%. For the same compound, the IC50 was 400 nM with L1210 [6] and 300 nM in the experiment with P388. Also, in the experiment with Mus musculus [7], the ILS at 25 mg/kg worked out at 255%. The increase in life span (ILS) at 12 mg/kg came out at 255% in the experiment with Mus musculus [8] and 197% in the experiment on Mus musculus [20]. Further, the increase in life span (ILS) at 6 mg/kg with Mus musculus [9] was determined as 197%. Moreover, the ILS at 50 mg/kg in the experiment on Mus musculus [13] came out at 255%. The compound also registered an ILS at 1.5 mg/kg in the experiment on Mus musculus [16] of 10%. Also, the ILS at 24 mg/kg in the experiment on Mus musculus [18] came out at 197%.

Turning to `NC(=O)c1c[se]c([C@@H]2O[C@H](COP(=O)(O)O)[C@@H](O)[C@H]2O)n1`, the MLS in the experiment on Mus musculus [21] was found to be 15.5 days; in the experiment with Mus musculus [23], 60 days; in the experiment with Mus musculus [24] it was 12.5 days; in the experiment with Mus musculus [26], 12.5 days; in the experiment on Mus musculus [27] it was 12.5 days; with Mus musculus [28], 12 days. In the experiment with Mus musculus [22], the ILS at 13 mg/kg came out at 215%. Besides, the IC50 with L1210 [25] came to 390 nM.

As to `NC(=O)c1csc([C@@H]2O[C@H](CO)[C@@H](O)[C@H]2O)n1` [TIAZOFURIN], the IC50 in the experiment with L1210 [6] turned out to be 1950 nM.

The ILS is how much longer treated animals lived than controls. A higher ILS goes with a large benefit in survival.
